Test [1] has as its target T1, human platelet membranes (Homo sapiens, UniProt P31645).
T1 construct: from tissue; host or cells: human platelets (membranes of sonicated platelet concentrates)
As to the kind of experiment: Platelet imipramine binding ([3H]-imipramine). Further details: key to Platelet Imipramine Binding, Result: Active: A compound is considered active if greater than about 50% inhibition is achieved at a concentration of about 10 μM. The following applies: 10 μM test compound, 60 min at 0° C.; for inhibition at 10 µM: [3H]imipramine. The method, then:
The activity of the compounds of this invention as anti-depressant agents was also shown in the following test which measures the ability of a test compound to inhibit [^3 H]-imipramine binding to human platelet membranes. Human platelet concentrates were diluted about 1:20 with antiprotease containing buffer of the following composition:
Approximately 0.12M: sodium chloride
Approximately 0.05M: tris buffer
Approximately 0.005N: potassium chloride
Approximately 0.025: μg/ml aprotinin
Approximately 0.5: μg/ml pepstatin
Approximately 2×10^-5 N: bacitracin
Approximately 3 mN: ethylenediaminetetraacetic acid
Approximately 1 mN: ethyleneglycol-bis-(β-aminoethyl ether)-N,N'-tetracetic acid
Such buffer was kept at about pH 6.8 to prevent platelet release and aggregation. The diluted platelets were centrifuged at about 2,500 g and then resuspended in about 50 volumes of the same buffer. The cells were then ruptured with a Branson sonicator while the suspension was maintained in an ice bath. The ruptured cells were then centrifuged at about 18,000 g, resuspended in fresh buffer and recentrifuged at about 18,000 g. The resulting membranes were then diluted with the above antiprotease buffer, which had been adjusted to about pH 7.4, and to a protein concentration of about 3.0 mg/ml.
The test compounds were dissolved in dimethylsulfoxide at a concentration of about 50 mM and then diluted about 1:10 in either water, about 0.1M hydrochloric acid or about 0.1M sodium hydroxide. They were then diluted about 1:100 in buffer to about 50 μM, and about 50 μl of this stock solution was placed in triplicate test tubes. The tubes were cooled to about 0° C. and about 200 μl of the following mixture were added:
About 100 μl of 3 mg/ml membrane in buffer
About 50 μl of 15 nM[^3 H]imipramine in buffer
The tubes were incubated for about 60 minutes at about 0° C. Controls contain either buffer alone (100%) or about 10 μM final of desmethylimipramine (DMI). The samples were diluted with about 5 ml of buffer [0.12M-sodium chloride, 0.05M-tris buffer, 0.005M-potassium chloride (pH 7.4)], vacuum filtered and washed twice with about 5 ml of buffer. Radioactivity was measured in a liquid scintillation counter and the degree of binding was calculated.

Test [2] relates to mice. As to the kind of experiment: Tetrabenazine-induced depression (exploratory behavior). It counts as in vivo. On the set-up: key to Tetrabenazine-Induced Depression, Result: Active: A compound is considered active if 3 or more of the 10 mice are protected against the tetrabenazine-induced effects. The following applies: about 25 mg/kg i.p., 30 min before tetrabenazine methanesulfonate about 39 mg/kg i.p.; for Tetrabenazine-Induced Depression, mice protected of 10: protected/tested; for Tetrabenazine-Induced Depression, Result: tested 30 min later. As to the method:
The compounds of this invention are useful as anti-depressant agents in warm-blooded animals. The anti-depressant properties of these compounds were tested by measuring their ability to counteract depression induced in such animals by the administration of tetrabenazine methanesulfonate. Each test compound was administered intraperitoneally to 10 mice at a dose of about 25 mg/kg of body weight. Approximately thirty minutes later, tetrabenazine methanesulfonate was administered intraperitoneally to each mouse at a dose of about 39 mg/kg of body weight, which dose is known to depress markedly the exploratory behavior of normal mice. Approximately thirty minutes later, the mice were tested for their exploratory behavior as described by E. Greenblatt and A. C. Osterberg, Toxicology and Applied Pharmacology, 7: 556-578 (1965). A compound is considered active if 3 or more of the 10 mice are protected against the tetrabenazine-induced effects.

Test [3] concerns mice. As to the kind of experiment: Tetrabenazine-induced ptosis. Format: in vivo. On the set-up: key to Tetrabenazine-Induced Ptosis, Result: Active: A compound is considered active if 5 or more of 10 mice respond. As to conditions: about 25 mg/kg i.p.; for Tetrabenazine-Induced Ptosis, Result: 30 min before tetrabenazine methanesulfonate about 39 mg/kg i.p., examined 30 min later; for Tetrabenazine-Induced Ptosis, mice responding of 10: responders (about 75% or greater opening of palpebral aperture)/tested. As to the method: Inhibition of tetrabenazine-induced ptosis is observed concomitantly with the inhibition of tetrabenazine-induced depression. Ptosis is defined as more than about 75% closure of palpebral aperture induced in animals by the administration of tetrabenazine methanesulfonate. The compounds were administered intraperitoneally at a dosage of about 25 mg per kilogram of body weight to groups of 10 mice. About thirty minutes later, tetrabenazine methanesulfonate was administered intraperitoneally to each mouse at a dose of about 39 mg/kg. About thirty minutes after the injection of tetrabenazine, the mice were placed on an observation disc and examined for approximately 10 seconds for inhibition of ptosis. […] A compound is considered active if 5 or more of 10 mice respond.

Broadly, the inhibition is the percentage by which the read-out fell short of the control.

T1 sequence (P31645 whole entry): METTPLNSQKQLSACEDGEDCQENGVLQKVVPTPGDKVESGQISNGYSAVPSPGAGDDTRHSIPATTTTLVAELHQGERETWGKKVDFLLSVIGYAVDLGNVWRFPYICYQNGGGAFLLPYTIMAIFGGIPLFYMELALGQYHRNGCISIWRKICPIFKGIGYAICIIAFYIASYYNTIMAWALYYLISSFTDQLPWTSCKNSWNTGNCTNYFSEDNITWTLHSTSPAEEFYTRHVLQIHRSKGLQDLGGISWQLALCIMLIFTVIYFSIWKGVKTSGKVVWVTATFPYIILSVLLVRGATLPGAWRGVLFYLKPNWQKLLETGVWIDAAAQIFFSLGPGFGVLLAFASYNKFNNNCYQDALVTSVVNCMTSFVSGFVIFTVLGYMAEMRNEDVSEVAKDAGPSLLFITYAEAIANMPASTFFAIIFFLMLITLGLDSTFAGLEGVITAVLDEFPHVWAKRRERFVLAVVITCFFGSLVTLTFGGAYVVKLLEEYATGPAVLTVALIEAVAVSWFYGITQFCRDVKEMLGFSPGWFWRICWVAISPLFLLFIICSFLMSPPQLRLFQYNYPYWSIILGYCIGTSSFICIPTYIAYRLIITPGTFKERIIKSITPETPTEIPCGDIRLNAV

For the molecule `COc1cccc(C23CCC2CN(C)C3)c1.O.O=C(O)/C=C/C(=O)O` (centres unmarked) [1-(m-Methoxyphenyl)-3-methyl-3-azabicyclo[3.2.0]heptane, and fumarate salt monohydrate], in test [1], the “Platelet Imipramine Binding, Result” value was “Active” and at 10 µM the inhibition was 99.8%.
The matching figures for `CCO[C@@H]1C[C@@H]2CN(C)C[C@@]21c1cccc(OC)c1` (relative stereo) [7α-Ethoxy-1β-(m-methoxyphenyl)-3-methyl-3-azabicyclo[3.2.0]heptane]: “Active” and 92%.
As for `Cc1ccc(C23CCC2CN(C)C3)cc1.O=C(O)/C=C/C(=O)O` (centres unmarked) [1-(p-Methylphenyl)-3-methyl-3-azabicyclo[3.2.0]heptane, and fumarate salt], in test [2], the “Tetrabenazine-Induced Depression, mice protected of 10” value is 5/10 and the “Tetrabenazine-Induced Depression, Result” value is “Active”. For the same molecule, in test [3], the “Tetrabenazine-Induced Ptosis, Result” value is on record as “Active” and the “Tetrabenazine-Induced Ptosis, mice responding of 10” value is listed as 10/10.
As for `CCO[C@H]1C[C@@H]2CN(C)C[C@@]21c1cccc(OC)c1` (relative stereo) [7β-Ethoxy-1β-(m-methoxyphenyl)-3-methyl-3-azabicyclo[3.2.0]heptan], in test [2], the “Tetrabenazine-Induced Depression, mice protected of 10” value is reported as 3/10 and the “Tetrabenazine-Induced Depression, Result” value was “Active”. In test [3], the “Tetrabenazine-Induced Ptosis, Result” value is “Active” and the “Tetrabenazine-Induced Ptosis, mice responding of 10” value is listed as 9/10. In test [1], the “Platelet Imipramine Binding, Result” value is recorded as “Active” and the inhibition at 10 µM was determined as 94%.

Values taken from patent publication US4544665A, “1-Aryl-3-azabicyclo[3.2.0]heptanes” (American Cyanamid Company, priority 1983, dated 1985).
